Results published in US20050255595A1, “Genetically modified non-human mammal cells, procedure for their production and use in toxicity tests” (priority 2002, published 2005).
Like-named read-outs stand apart in the source and are kept apart here.

What was measured:
[1] = tested on: single transgenic HPS70/hGH primary hepatocytes (PHGH); test: toxicity test, hGH secretion by primary transgenic hepatocytes (PHGH); format: cell-based, mice; conditions: PHGH; 10^-5, 5x10^-5, 10^-4 M; 5 h; FIG. 1 graph A
From the text: On the basis of the results illustrated, for the further analyses, clone no. […] The response to the toxic stress of the clone MMH/GH5 was then compared with the one obtained in single transgenic HPS70/hGH primary hepatocytes (PHGH). A representative sample of the cell line derived from said clone MMH/GH5 was deposited in accordance with and for the purposes of the Treaty of Budapest on the international recognition of deposit of micro-organisms for the purposes of the patents procedure with the AID “Centro di Biotecnologie Avanzate (CBA), Interlab Cell Line Collection (ICLC)” Servizio Biotecnologie, Largo R. Benzi, 10, 16132 Genova, Italy, on Jul. 30, 2002, where it was given identification number PD 02007.
(§1) In table 3 the cellular survival percentage was determined with the Trypan Blue exclusion method. […]
(§2) For treatment, the two types of cells were treated with different concentrations of the compounds for 1 or 5 hours and then with normal medium for a further 24 hours. The effects of the treatment were assessed as described previously for the inorganic toxicants.

[2] = tested on: primary hepatocytes (PHGH); test: cellular survival of PHGH, Trypan Blue exclusion; format: cell-based, mice; conditions: highest concentrations of the toxicant; Trypan Blue; FIG. 1 graph B
From the text: This different behaviour is explained by the greater sensitivity to the toxicant of the PHGH with respect to the MMH/GH5 as shown by analysis of the cellular vitality performed with the Trypan Blue method (FIG. 1, graph B). […] Therefore the greater resistance of the cells MMH/GH/5 to the toxicants constitutes another evident advantage as it permits the exclusion of false negatives in which the non-release of hGH, due to cellular death, is interpreted as non-toxicity of the compound. When the supernatant is collected after 5 hours of treatment followed by 24 hours of culture with normal medium (FIG. 1 graph C) the PHGHs respond, at the lowest concentrations of the two toxicants, with high levels of secretion of hGH and, at the highest concentrations, with low levels of secretion of hGH (lower cellular survival, graph D).
as §1, §2

[3] = tested on: MMH/GH cells, Clone 2; conditions: for hGH secreted, 5 h: 5 h treatment; for hGH secreted, 5 + 24 h: 5 h treatment + 24 h recovery
[4] = tested on: MMH/GH cells, Clone 4; conditions: Clone 4; for hGH secreted, 5 h: 5 h treatment; for hGH secreted, 5 + 24 h: 5 h treatment + 24 h recovery
[5] = tested on: MMH/GH5 cells (Clone 5); conditions: for hGH secreted, 5 h / hGH secreted, 5 + 24 h: Clone 5; for hGH secreted, 5 h: 5 h treatment; for hGH secreted, 5 + 24 h: 5 h treatment + 24 h recovery
[6] = tested on: MMH/GH cells, Clone 9; conditions: for hGH secreted, 5 h: 5 h treatment; for hGH secreted, 5 + 24 h: 5 h treatment + 24 h recovery
[7] = tested on: MMH/GH cells, Clone 10; conditions: for hGH secreted, 5 h: 5 h treatment; for hGH secreted, 5 + 24 h: 5 h treatment + 24 h recovery
[8] = tested on: MMH/GH cells, Clone 11; conditions: Clone 11; for hGH secreted, 5 h: 5 h treatment; for hGH secreted, 5 + 24 h: 5 h treatment + 24 h recovery

In the case of `[Cl][Cd][Cl]` [CdCl2], the “release of hGH in the culture medium in relation to concentration of the toxicant” value [1] is reported as “inversely proportional”, the “survival of the PHGHs” value [2] is reported as “practically nil” and the “hGH secreted, 5 h” value ([3]; 5x10^-5 M (As2/Cd2)) is reported as 0. The “hGH secreted, 5 + 24 h” value ([3]; 5x10^-5 M (As2/Cd2)) was 4, the “hGH secreted, 5 h” value ([3]; 10^-4 M (As3/Cd3)) was 0 and the “hGH secreted, 5 + 24 h” value ([3]; 10^-4 M (As3/Cd3)) was 0. For the same compound, the “hGH secreted, 5 h” value ([3]; 10^-5 M (As1/Cd1)) was 0, the “hGH secreted, 5 + 24 h” value ([3]; 10^-5 M (As1/Cd1)) was 0 and the “hGH secreted, 5 h” value ([4]; 5x10^-5 M (As2/Cd2)) was 0. For the same compound, the “hGH secreted, 5 + 24 h” value ([4]; 5x10^-5 M (As2/Cd2)) was 0, the “hGH secreted, 5 h” value ([4]; 10^-4 M (As3/Cd3)) was 0 and the “hGH secreted, 5 + 24 h” value ([4]; 10^-4 M (As3/Cd3)) was 0. For the same compound, the “hGH secreted, 5 h” value ([4]; 10^-5 M (As1/Cd1)) was 0, the “hGH secreted, 5 + 24 h” value ([4]; 10^-5 M (As1/Cd1)) was 0 and the “hGH secreted, 5 h” value ([5]; 5x10^-5 M (As2/Cd2)) was 50. For the same compound, the “hGH secreted, 5 + 24 h” value ([5]; 5x10^-5 M (As2/Cd2)) was 40, the “hGH secreted, 5 h” value ([5]; 10^-4 M (As3/Cd3)) was 90 and the “hGH secreted, 5 + 24 h” value ([5]; 10^-4 M (As3/Cd3)) was 20. For the same compound, the “hGH secreted, 5 h” value ([5]; 10^-5 M (As1/Cd1)) was 25, the “hGH secreted, 5 + 24 h” value ([5]; 10^-5 M (As1/Cd1)) was 25 and the “release of hGH in the culture medium in relation to concentration of the toxicant” value ([5]; MMH/GH5, 10^-5, 5x10^-5, 10^-4 M, 5 h, FIG. 1 graph A) was “directly proportional to the concentration of the toxicant”. The “hGH secreted, 5 h” value ([6]; 5x10^-5 M (As2/Cd2)) was 200, the “hGH secreted, 5 + 24 h” value ([6]; 5x10^-5 M (As2/Cd2)) was 0 and the “hGH secreted, 5 h” value ([6]; 10^-4 M (As3/Cd3)) was 5. For the same compound, the “hGH secreted, 5 + 24 h” value ([6]; 10^-4 M (As3/Cd3)) was 0, the “hGH secreted, 5 h” value ([6]; 10^-5 M (As1/Cd1)) was 0 and the “hGH secreted, 5 + 24 h” value ([6]; 10^-5 M (As1/Cd1)) was 0. The “hGH secreted, 5 h” value ([7]; 5x10^-5 M (As2/Cd2)) was 0, the “hGH secreted, 5 + 24 h” value ([7]; 5x10^-5 M (As2/Cd2)) was 12 and the “hGH secreted, 5 h” value ([7]; 10^-4 M (As3/Cd3)) was 0. The “hGH secreted, 5 + 24 h” value ([7]; 10^-4 M (As3/Cd3)) was 7, the “hGH secreted, 5 h” value ([7]; 10^-5 M (As1/Cd1)) was 0 and the “hGH secreted, 5 + 24 h” value ([7]; 10^-5 M (As1/Cd1)) was 25. The “hGH secreted, 5 h” value ([8]; 5x10^-5 M (As2/Cd2)) was 0, the “hGH secreted, 5 + 24 h” value ([8]; 5x10^-5 M (As2/Cd2)) was 0 and the “hGH secreted, 5 h” value ([8]; 10^-4 M (As3/Cd3)) was 0. For the same compound, the “hGH secreted, 5 + 24 h” value ([8]; 10^-4 M (As3/Cd3)) was 0, the “hGH secreted, 5 h” value ([8]; 10^-5 M (As1/Cd1)) was 40 and the “hGH secreted, 5 + 24 h” value ([8]; 10^-5 M (As1/Cd1)) was 0.
